Measured values: patent US10603322B2, “Therapeutic targeting of casein kinase 1δ in breast cancer” (The Scripps Research Institute, priority 2015, dated 2020)

How the values were obtained:
[1] = test system: MDA-MB-231-luc tumors; assay: Orthotopic MDA-MB-231-luc tumor model, treatment from day 7; format: in vivo, nude mice; settings: 20 mg/kg daily i.p.
Description: (§1) All animal studies are approved by the Scripps Florida IACUC. Stable pools of MDA-MB-231-Luc, MDA-MB-231, MDA-MB-468, SKBR3 or BT474 cells were established by injection of 2×10^6 cancer cells into the mammary fat pads of 6-week old female athymic nude mice (Charles River Laboratories). Establishment of BCM-4013 patient derived xenografts were as described (19). Briefly, fresh xenograft tumor fragments (˜1 mm^3) were transplanted into the cleared mammary fat pad of recipient SCID/Bg mice (Charles River Laboratories). Mice were treated with SR-3029 or vehicle (10:10:80, DMSO:Tween-80:Water) at 20 mg/kg daily by i.p. injection. Tumor volumes were measured as the indicated intervals using calipers or by luminescence imaging using the IVIS 100 imager (exposure time, 1-60 sec; binning 8; field of view 15-cm; f/stop 1; open filter) following subcutaneous injection of luciferin (15 mg/ml, Goldbio Technology). Average radiance (p/s/cm^2/sr) was determined from tumor region-of-interest (ROI) using Living-Image (Xenogen) analysis software.

[2] = test system: breast cancer cell types overexpressing CK1δ; assay: Cell proliferation assay (Cell-Titer Glo, 72 hr); format: cell-based; settings: Homo sapiens
Protocol: (§2) Cell proliferation was measured 72 hr after SR-3029 or vehicle treatment using Cell-Titer Glo (Promega) according to the manufacturers' instructions. EC50 values were determined using non-linear regression and a four-parameter algorithm (GraphPad Prism5). For clonogenic assays, cells were plated in 6-well dishes in triplicate at a density of 500-1000 cells per well. After overnight incubation, SR-3029 or vehicle (DMSO) was added to media for 72 hr and cells were allowed to grow out for 7-10 days, during which media was changed every 2-3 days in the absence of compound. Colonies were fixed in 4% paraformaldehyde/PBS and stained with 0.5% methylene blue in 50% ethanol for 1 hr at room temperature and de-stained with water. Colonies with greater than 50 cells were counted using a low magnification light microscope.

[3] = Tolerability of long-term daily dosing; format: in vivo, mice
Description: as §1
For apoptotic detection in cryosections tumors and small intestines were fixed in 10% buffered formalin for 2 hr, incubated in 20% sucrose overnight and embedded in OCT. Frozen sections ([…]) were mounted and stained using the ApopTag Red In Situ Kit according to the manufacturer instructions (CHEMICON). For H&E staining, tissues were fixed in 10% buffered formalin for 48 hr, transferred to 70% ethanol/PBS and embedded in paraffin. Staining was performed on […] sections following deparaffinization (AML Laboratories).

[4] = test system: β-catenin/TCF transcriptional activity; assay: TCF-dependent luciferase reporter assay in MDA-MB-231 cells; format: cell-based, human; settings: increasing doses, 6 hr
Protocol: MDA-MB-231 or HEK293 cells stably expressing the TCF luciferase reporter 7TFP (39) were transfected with β-catenin-S33Y or empty vector (pcDNA). After 18 hr cells were seeded onto a 96-well plate at a density of 6000 cells/well. After 24 hr cells were treated with SR-3029 or vehicle and incubated for 6 hr prior to addition of 1 μg/ml recombinant human Wnt3a (R&D Systems) or PBS. After 3 hr, reporter assays were performed using BriteLite Plus (Perkin Elmer), which was added in equal volume directly to the media and luminescence read using a Spectramax plate reader (Molecular Devices).

[5] = test system: MDA-MB-231 TNBC cells; assay: Cell proliferation / growth assay; format: cell-based, human; settings: forced expression of β-catenin-S33Y or β-catenin N90; 72 hr
[6] = test system: BCM-4013 PDX tumors; assay: Patient-derived xenograft (PDX) model; format: in vivo, SCID/Bg mice; settings: 20 mg/kg daily i.p.
Description: as §1
For apoptotic detection in cryosections tumors and small intestines were fixed in 10% buffered formalin for 2 hr, incubated in 20% sucrose overnight and embedded in OCT. Frozen sections ([…]) were mounted and stained using the ApopTag Red In Situ Kit according to the manufacturer instructions (CHEMICON). […]

[7] = test system: kinome; settings: cited from earlier work
[8] = in vivo; cited from earlier work
[9] = test system: T47D breast cancer cells; assay: Cell proliferation assay (Cell-Titer Glo, 72 hr); format: cell-based, human; settings: low CK1δ; versus CK1δ overexpressing cells
Protocol: as §2

[10] = test system: MCF7 breast cancer cells; assay: Cell proliferation assay (Cell-Titer Glo, 72 hr); format: cell-based, human; settings: low CK1δ; versus CK1δ overexpressing cells
Protocol: as §2

[11] = test system: MCF10A cell line; assay: Cell proliferation assay (Cell-Titer Glo, 72 hr); format: cell-based, human; settings: low CK1δ; versus CK1δ overexpressing cells
Protocol: as §2

[12] = test system: β-catenin/TCF target genes; assay: Expression of Wnt/β-catenin and Notch pathway genes (immunoblot, qPCR); format: cell-based, human; settings: 24 hr, 100 nM
Protocol: SDS-PAGE gel electrophoresis was performed using NuPAGE 4-12% Bis-Tris gels (Invitrogen) and transferred to PVDF membranes by semi-dry transfer using trans-blot transfer medium (Biorad). Membranes were blocked in Odyssey blocking buffer (LI-COR Biosciences) and incubated overnight at 4° C. with primary antibodies. After repeated washes with TBST (20 mM Tris, pH 7.6, 140 mM NaCl and 0.1% Tween-20) blots were incubated with the appropriate IRDye-conjugated secondary antibody (LI-COR Biosciences) and imaged using the LI-COR Odyssey. Bands were quantified using the Odyssey software (LI-COR Biosciences). The following antibodies were used in this study: CK1δ and Histone H4 (Abcam), CK1ε, c-Myc (9E10), Cyclin-D1 and β-actin (Santa Cruz), β-catenin (Cell Signaling), GAPDH (Millipore) and CD44 (R&D Systems).
Total RNA was obtained using the RNeasy Plus Mini Kit (Qiagen) and 1-2 μg of RNA was reverse transcribed with Superscript III First Strand Synthesis System (Life Technologies). Quantitative PCR was performed using the Power SYBR Green PCR Master Mix (Life Technologies) and the ABI7900HT Fast Real-Time PCR System. Intron-spanning gene-specific primer pairs were designed using the Primer3 algorithm and relative expression values for each gene of interest obtained by normalizing to GAPDH mRNA expression using the ^ΔΔCt method.

[13] = test system: CK1δ overexpressing breast cancer cells; assay: Apoptosis by PI/Annexin V FACS; format: cell-based, human; settings: 72 hr treatment
Protocol: 2×10^5 cells seeded in triplicate in 6-well dishes were cultured with SR-3029 or vehicle for 72 hr. Cells were then harvested and stained with Annexin V-FITC and PI using the Annexin V-FITC Apoptosis Detection Kit (BioVision) per the manufacturer's instructions and analyzed using the LSRI II flow cytometer (Becton Dickinson). Staurosporine (Cell Signaling) treated cells (1 μM) were used as positive/compensation controls.

Fc1cccc(-n2cnc3c(NCc4nc5ccc(F)c(F)c5[nH]4)nc(N4CCOCC4)nc32)c1 [SR-3029]
tumor growth ([1]; single agent, start seven days after engraftment): markedly impaired tumor growth
recipients that developed tumors ([1]; n=8 per cohort): 2
EC50 [2]: 5 to 70 nM
tolerability: body weight, blood chemistry and tissue integrity by histochemistry ([3]; long-term daily dosing (48 days), 20 mg/kg i.p.): well tolerated, with no overt toxicity
small intestine apoptosis, TUNEL staining ([3]; long-term treatment): failed to detect evidence of apoptosis
small intestine integrity, H&E staining ([3]; long-term treatment): no gross morphological defects
endogenous β-catenin/TCF transcriptional activity [4]: markedly reduced
growth inhibitory and apoptotic effects with constitutively active β-catenin [5]: sufficient to rescue the growth inhibitory and apoptotic effects
tumor cell apoptosis (TUNEL) [6]: triggered tumor cell apoptosis
growth of PDX tumors ([6]; p=0.0002): significantly inhibited the growth
off-target kinase affinity ([7]; CDK4, MYLK4 and FLT3, in addition to CK1δ and CK1ε): weaker affinity for only three kinases
fraction of the kinome inhibited [7]: 1%
pharmacokinetic properties [8]: amenable for in vivo studies
sensitivity in cell proliferation assay [9]: 2-3 orders of magnitude less sensitive
sensitivity in cell proliferation assay [10]: 2-3 orders of magnitude less sensitive and relative insensitivity and refractory
sensitivity in cell proliferation assay [11]: 2-3 orders of magnitude less sensitive
Notch pathway mRNAs (JAG1, NUMB, DTX) [12]: no effect
expression of endogenous β-catenin/TCF target genes (CCND1, MYC, CD44, WNT3, WNT9A) [12]: repressed
expression of the endogenous Wnt antagonist SFRP1 [12]: marked increase
apoptosis [13]: selectively triggered rapid apoptosis
